# From patent US20220002700A1, “COMPUTATIONALLY-OPTIMIZED ACE2 PEPTIDES FOR COMPETITIVE INTERCEPTION OF SARS-CoV-2” (priority 2020, published 2022)
# Where no end group is shown, it is not given here.
# Tests used:
# [1] = target: RBD-sfGFP (SARS-CoV-2 RBD fused to superfolder GFP) (Severe acute respiratory syndrome coronavirus 2, UniProt P0DTC2)
# [2] = tested on: S protein-pseudotyped virus; assay type: cell-based, SARS-CoV-2
Substance,reduction (depletion) of GFP+ cells [1],degradation in TRIM21 assay compared with other architectures [1],difference in pseudoviral infection competency with addition of exogenous peptide [2]
QAKTFLDKFNHEAEDLFYQSSLA [sACE2 peptide variant 2],~20%,,
23-mer (A2N) (QNKTFLDKFNHEAEDLFYQSSLA; also: fused to a dimerising Fc or GST),over 50%,"improving on both the sACE2 and 23-mer architecture as well as that of a previously optimized full- length mutant, sACE2v2.4",Minimal difference
